# Assay results as given in publication PMC11845477, “Exploring the principles behind antibiotics with limited resistance” (Nature Communications, 2025).
# How the values were obtained:
# [1] = system: E. coli BW25113: pUCacrAB; test: AcrAB-TolC efflux overexpression screen, relative MIC; type: cell-based, Escherichia coli; settings: pUCacrAB vs empty pUC118 control
# Description: Fig. 6 The impact of AcrAB-TolC activity on antibiotic susceptibility. E. coli strains with AcrAB-TolC depletion (BW25113-ΔacrB) and overexpression (BW25113: pUCacrAB) were treated with various antibiotics, and the level of resistance was determined as minimum inhibitory concentration (MIC) relative to a wild-type strain, presented on a logarithmic scale (log2). Each bar represents the mean resistance level (susceptibility, i.e., level of resistance < 0; and resistance, i.e., level of resistance > 0) to antibiotics induced by acrAB overexpression (blue bars; E. coli with a multicopy plasmid of the acrAB genes (pUCacrAB)) and acrB deletion (red bars; mutant E. coli with acrB gene deletion (ΔacrB)) compared to the wild-type. Data are presented as mean values of 3 biological replicates ± SD. […] Detailed information on antibiotic and bacterial strain abbreviations is provided in Supplementary Data 1. Source data are provided as a Source Data file. For information on mode of action groups, refer to Table 1.
# For the efflux deficiency screen, the ΔacrB mutant of E. coli K12 BW25113[86] and its equivalent wild-type control strain with intact gene were utilized. In contrast, BW25113 carrying a multicopy acrAB plasmid (pUCacrAB)[87] and its control strain harboring an empty pUC118 plasmid were used to overexpress the acrAB efflux system. According to established protocols via P1 transduction, the suitable acrB deletion mutant (ΔacrB BW25113) was created, while the pUCacrAB plasmid was kindly provided by Kunihiko Nishino and Akihito Yamaguchi (Osaka University, Osaka, Japan). In a prior study, both strains were employed. Since the copy number of the plasmid carrying the efflux pump is controlled by native promoters, external induction is unnecessary.
# Antibiotic susceptibilities of these strains were evaluated using a modified version of the standard broth dilution method. In 96-well microtiter plates containing fresh MHB medium, or supplemented MS medium in case of SCH79797, ten-step serial dilutions of an antibiotic from a stock solution were made (2 wells per antibiotic concentration per strain). The two wells contained only supplemented media without any antibiotics […]. Strains were incubated overnight at 37 °C with continuous agitation. Additionally, plasmid containing strains were grown in the presence of 100 µg/mL ampicillin. The culture was diluted to yield a cell suspension with 5 ×10^5 cells/mL and then inoculated into the wells of the microtiter plate. To determine the medium’s background OD value, the first column of the 96-well plate contained solely MHB without inoculum. Prior to the measurement, the plates were incubated at 37 °C with continuous shaking at 900 rpm with 3 mm throw. OD600 values were determined in a microplate reader after 18 hours of incubation (Biotek Synergy 2). The minimum inhibitory concentration (MIC) was determined as the lowest concentration of antibiotic at which the OD600 values were less than 0.05 after subtracting the background value. The log2 of the relative MIC was computed using the following equation:2 log2relativeMICpUCacrAB=MICpUCacrAB/MICpUC118 3 log2relativeMICΔacrB=MICΔacrB/MICwt
# [2] = system: A. baumannii ATCC 17978 (SEN) and A. baumannii ATCC BAA-1605 (MDR); test: Adaptive laboratory evolution (ALE), relative MIC of evolved lines; type: cell-based, Acinetobacter baumannii; settings: for Relative MIC (log10): AB-SEN (Acinetobacter baumannii ATCC 17978)
# Source text: Using the same set of bacterial strains, we initiated adaptive laboratory evolution with the aim to maximize the level of antibiotic resistance in the populations achieved during a longer, but fixed time period.
# An established protocol for adaptive laboratory evolution[46],[73] was followed to propagate populations with the highest resistance levels. Starting with an antibiotic concentration that caused approximately 50% growth inhibition, ten parallel populations for each antibiotic-ancestor strain combination were grown for 72 hours at 37 °C with continuous shaking (300 RPM). MHB broth medium was used unless stated otherwise. After each incubation, 20 µl of each culture was transferred to four new wells containing fresh medium with increasing antibiotic concentrations (0.5×, 1×, 1.5×, and 2.5× the previous concentration) in a chessboard layout to monitor potential cross-contamination. Growth was monitored by measuring OD600 using a Biotek Synergy 2 microplate reader, and only populations grown in the highest drug concentration with an OD600 > 0.2 were transferred further.
# A robotic liquid handling system was used to automatically prepare a 11 to 16-step serial dilution in 384-well microtiter plates (Greiner). A final concentration of 5 × 10^5 bacterial cells per mL were inoculated into each well containing 60 µL MHB medium. Bacterial cultures were incubated at 37 °C with continuous shaking (Infors shaker, 900 rpm with 3 mm throw) for 18 hours (2 replicates from each). Cell growth was monitored by measuring the optical density (OD600 values, using Biotek Synergy microplate reader). MIC was defined as the antibiotic concentration of complete growth inhibition (i.e., OD600 < 0.05). Relative MIC was calculated as follows:1 relativeMIC=MICevolved/MICancestor […]
# Supplementary Figure 4. Resistance levels following adaptive laboratory evolution across bacterial strains. The level of resistance was measured as the fold change in relative MIC between evolved and ancestral strains after ~60 days of adaptive laboratory evolution. Data are grouped by bacterial strain (A. baumannii (AB), E. coli (EC), K. pneumoniae (KP), and P. aeruginosa (PA)) and categorized as either multidrug-resistant (MDR) or sensitive (SEN). Each data point represents a laboratory evolved line, and boxplots show the median, first and third quartiles, with whiskers indicating the 5th and 95th percentiles.
# Statistical analysis was performed using two-sided Dunn’s post-hoc test with Benjamini-Hochberg correction for multiple comparisons (****/ ***/ **/ * indicates p < 0.0001/ 0.001/ 0.01/ 0.05). For detailed information on antibiotic and bacterial species, see Supplementary Table 1. For mode of action groups, refer to Table 1. Source data are provided as a Source Data file.
# [3] = AB-SEN (ATCC 17978), evolved line 1, MIC of evolved line / MIC of ancestor
# [4] = AB-SEN (ATCC 17978), evolved line 2, MIC of evolved line / MIC of ancestor
# [5] = AB-SEN (ATCC 17978), evolved line 3, MIC of evolved line / MIC of ancestor
# [6] = AB-SEN (ATCC 17978), evolved line 4, MIC of evolved line / MIC of ancestor
# [7] = AB-SEN (ATCC 17978), evolved line 5, MIC of evolved line / MIC of ancestor
# [8] = AB-SEN (ATCC 17978), evolved line 6, MIC of evolved line / MIC of ancestor
# [9] = AB-SEN (ATCC 17978), evolved line 7, MIC of evolved line / MIC of ancestor
# [10] = AB-SEN (ATCC 17978), evolved line 8, MIC of evolved line / MIC of ancestor
# [11] = AB-SEN (ATCC 17978), evolved line 9, MIC of evolved line / MIC of ancestor
# [12] = AB-SEN (ATCC 17978), evolved line 10, MIC of evolved line / MIC of ancestor
# [13] = evolved line 2 adapted to the named antibiotic
# [14] = evolved line 4 adapted to the named antibiotic
# [15] = evolved line 5 adapted to the named antibiotic
# [16] = Acinetobacter baumannii ATCC 17978 (AB-SEN), evolved line 1
# [17] = Acinetobacter baumannii ATCC 17978 (AB-SEN), evolved line 2
# [18] = Acinetobacter baumannii ATCC 17978 (AB-SEN), evolved line 3
# [19] = Acinetobacter baumannii ATCC 17978 (AB-SEN), evolved line 4
# [20] = Acinetobacter baumannii ATCC 17978 (AB-SEN), evolved line 5
# [21] = Acinetobacter baumannii ATCC 17978 (AB-SEN), evolved line 6
# [22] = Acinetobacter baumannii ATCC 17978 (AB-SEN), evolved line 7
# [23] = Acinetobacter baumannii ATCC 17978 (AB-SEN), evolved line 8
# [24] = Acinetobacter baumannii ATCC 17978 (AB-SEN), evolved line 9
# [25] = Acinetobacter baumannii ATCC 17978 (AB-SEN), evolved line 10
structure (smiles),measurement,setting,value
Nc1nc(-n2cc(C(=O)O)c(=O)c3cc(F)c(N4CC(O)C4)c(Cl)c32)c(F)cc1F [Delafloxacin],Relative MIC (log2),[1]; replicate 1,2
same,Relative MIC (log2),[1]; replicate 2,2
same,Relative MIC (log2),[1]; replicate 3,2
same,Relative MIC,[2]; [3],256
same,Relative MIC,[2]; [4],128
same,Relative MIC,[2]; [5],256
same,Relative MIC,[2]; [6],256
same,Relative MIC,[2]; [7],512
same,Relative MIC,[2]; [8],256
same,Relative MIC,[2]; [9],128
same,Relative MIC,[2]; [10],64
same,Relative MIC,[2]; [11],128
same,Relative MIC,[2]; [12],128
same,Relative MIC (log10),[2]; [13],2.107
same,Relative MIC (log10),[2]; [14],2.408
same,Relative MIC (log10),[2]; [15],2.709
same,Relative MIC (log10),[2]; evolved line 6 adapted to the named antibiotic,2.408
same,Relative MIC (log10),[2]; evolved line 9 adapted to the named antibiotic,2.107
same,Relative MIC,[2]; [16],256
same,Relative MIC,[2]; [17],128
same,Relative MIC,[2]; [18],256
same,Relative MIC,[2]; [19],256
same,Relative MIC,[2]; [20],512
same,Relative MIC,[2]; [21],256
same,Relative MIC,[2]; [22],128
same,Relative MIC,[2]; [23],64
same,Relative MIC,[2]; [24],128
same,Relative MIC,[2]; [25],128
C[C@H]1c2cccc(O)c2C(=O)C2=C(O)[C@]3(O)C(=O)C(C(N)=O)=C(O)[C@@H](N(C)C)[C@@H]3[C@@H](O)[C@@H]21 [Doxycycline],Relative MIC (log2),[1]; replicate 1,0
same,Relative MIC (log2),[1]; replicate 2,0
same,Relative MIC (log2),[1]; replicate 3,0
same,Relative MIC,[2]; [3],32
same,Relative MIC,[2]; [4],64
same,Relative MIC,[2]; [5],16
same,Relative MIC,[2]; [6],32
same,Relative MIC,[2]; [7],32
same,Relative MIC,[2]; [8],16
same,Relative MIC,[2]; [9],32
same,Relative MIC,[2]; [10],32
same,Relative MIC,[2]; [11],16
same,Relative MIC,[2]; [12],16
same,Relative MIC (log10),[2]; [13],1.806
same,Relative MIC (log10),[2]; [14],1.505
same,Relative MIC (log10),[2]; [15],1.505
same,Relative MIC (log10),[2]; evolved line 7 adapted to the named antibiotic,1.505
same,Relative MIC (log10),[2]; evolved line 8 adapted to the named antibiotic,1.505
same,Relative MIC,[2]; [16],32
same,Relative MIC,[2]; [17],64
same,Relative MIC,[2]; [18],16
same,Relative MIC,[2]; [19],32
same,Relative MIC,[2]; [20],32
same,Relative MIC,[2]; [21],16
same,Relative MIC,[2]; [22],32
same,Relative MIC,[2]; [23],32
same,Relative MIC,[2]; [24],16
same,Relative MIC,[2]; [25],16
